Measurements taken from paper PMC9749896 (Bioorganic & medicinal chemistry letters, 2022).

How the values were obtained:
[1] = test system: H1975 (EGFR^L858R/T790M); conditions: daily oral dosing at 100 mg/kg; cited from earlier work
[2] = test system: Ba/F3 EGFR^L858R/T790M cells; conditions: cited from earlier work
[3] = test system: EGFR^L858R/T790M/C797S models; conditions: daily oral dosing at 50 mg/kg; cited from earlier work
[4] = test system: A431 (wt EGFR); conditions: daily oral dosing at 50 mg/kg; cited from earlier work
[5] = test system: Ba/F3 EGFR^L858R/T790M cells; experiment: cells; conditions: Mus musculus, BaF3, read-out: cell EC50, Ba/F3 EGFR L858R/T790M
[6] = test system: Ba/F3 EGFR^L858R/T790M/C797S cells; experiment: cells; conditions: Mus musculus, BaF3, read-out: cell EC50, Ba/F3 EGFR L858R/T790M/C797S

## O=C(Nc1nccs1)C(c1cc(F)ccc1O)N1Cc2ccc(-c3ccc(N4CCNCC4)cc3)cc2C1=O (stereo not drawn) [Compound 2]
[1]
  H1975 model efficacy: efficacy was observed
[2]
  single-agent activity in Ba/F3 EGFR L858R/T790M antiproliferative assay: good single-agent activity

## CN1CCC(c2ccc(-c3ccc4c(c3)C(=O)N(C(C(=O)Nc3nccs3)c3cc(F)ccc3O)C4)cc2)CC1 (stereo not drawn) [Compound 4]
[3]
  efficacy in triple mutant (EGFR L858R/T790M/C797S) models: tumor regression
[4]
  efficacy in A431 (wt EGFR) model: minimal effects

## CN1CCC(c2ccc(-c3ccc4ncn(C(C(=O)Nc5nccs5)c5ccccc5)c(=O)c4c3)cc2)CC1 (stereo not drawn) [Compound 23]
[5]
  EC50: 720 nM
[6]
  EC50: 50 nM
